Experimental data: ChEMBL document CHEMBL3885881, “DrugMatrix”

Species on record: Rattus norvegicus
Assay: DrugMatrix - Regimen: Daily Repeat
Type: toxicity, organism-based, Sprague-Dawley
Design: regimen Daily Repeat, gender Male, age 6-8 weeks
Conditions: in vivo, sc, route subcutaneous, […]; for ABSOLUTE BASOPHIL / ABSOLUTE EOSINOPHIL / ABSOLUTE LYMPHOCYTE / ABSOLUTE MONOCYTE / ABSOLUTE SEGMENTED NEUTROPHIL / BASOPHIL / EOSINOPHIL / ERYTHROCYTE COUNT / HEMATOCRIT / HEMOGLOBIN / LEUKOCYTE COUNT / LYMPHOCYTE / MEAN CORPUSCULAR HEMOGLOBIN / MEAN CORPUSCULAR HEMOGLOBIN CONCENTRATION / MONOCYTE / NUCLEATED RED BLOOD CELLS / PLATELET COUNT: tissue Blood; for ALANINE AMINOTRANSFERASE / ALBUMIN / ALKALINE PHOSPHATASE / ASPARTATE AMINOTRANSFERASE / BLOOD UREA NITROGEN / CARBON DIOXIDE / CHLORIDE / CHOLESTEROL / CREATINE PHOSPHOKINASE / CREATININE / GLUCOSE / LACTATE DEHYDROGENASE / PHOSPHORUS / POTASSIUM / SODIUM / TOTAL BILIRUBIN / TOTAL PROTEIN / URIC ACID: tissue Plasma
[1] = 130 mg/kg, 72 h, dose level High, time 3 day
[2] = 130 mg/kg, 120 h, dose level High, time 5 day
[3] = 72 h, dose 2.4 mg/Kg, dose level Low, time 3 day
[4] = 120 h, dose 2.4 mg/Kg, dose level Low, time 5 day

CC(C)(C)NCC(O)c1cc(O)cc(O)c1 (stereo not given) [TERBUTALINE]
ABSOLUTE BASOPHIL [1]: 0 CELLS/uL
ABSOLUTE EOSINOPHIL [1]: 167.67 CELLS/uL
ABSOLUTE LYMPHOCYTE [1]: 11900.33 CELLS/uL
ABSOLUTE MONOCYTE [1]: 398.67 CELLS/uL
ABSOLUTE SEGMENTED NEUTROPHIL [1]: 1166.67 CELLS/uL
BASOPHIL [1]: 0%
EOSINOPHIL [1]: 1.33%
ERYTHROCYTE COUNT [1]: 5.52 x10E6/uL
HEMATOCRIT [1]: 35.5%
HEMOGLOBIN [1]: 13.33 G/DL
LEUKOCYTE COUNT [1]: 13.63 x10E3/uL
LYMPHOCYTE [1]: 87%
MEAN CORPUSCULAR HEMOGLOBIN [1]: 24.2 pg
MEAN CORPUSCULAR HEMOGLOBIN CONCENTRATION [1]: 37.57 G/DL
MONOCYTE [1]: 3%
NUCLEATED RED BLOOD CELLS [1]: 0 /100WBC
PLATELET COUNT [1]: 1383.67 x10E3/uL
ALANINE AMINOTRANSFERASE [1]: 49 u/L
ALBUMIN [1]: 4.03 G/DL
ALKALINE PHOSPHATASE [1]: 361 u/L
ASPARTATE AMINOTRANSFERASE [1]: 73.33 u/L
BLOOD UREA NITROGEN [1]: 18.33 mg/dL
CARBON DIOXIDE [1]: 25.67 mmol/L
CHLORIDE [1]: 104 MEQ/L
CHOLESTEROL [1]: 72.33 mg/dL
CREATINE PHOSPHOKINASE [1]: 253.67 u/L
CREATININE [1]: 0.23 mg/dL
GLUCOSE [1]: 146 mg/dL
LACTATE DEHYDROGENASE [1]: 407 u/L
PHOSPHORUS [1]: 12.8 mg/dL
POTASSIUM [1]: 6.42 MEQ/L
SODIUM [1]: 145.5 MEQ/L
TOTAL BILIRUBIN [1]: 0.2 mg/dL
TOTAL PROTEIN [1]: 5.97 G/DL
URIC ACID [1]: 1.3 mg/dL
ABSOLUTE BASOPHIL [2]: 0 CELLS/uL
ABSOLUTE EOSINOPHIL [2]: 53.33 CELLS/uL
ABSOLUTE LYMPHOCYTE [2]: 12240 CELLS/uL
ABSOLUTE MONOCYTE [2]: 406 CELLS/uL
ABSOLUTE SEGMENTED NEUTROPHIL [2]: 2467.33 CELLS/uL
BASOPHIL [2]: 0%
EOSINOPHIL [2]: 0.33%
ERYTHROCYTE COUNT [2]: 6.08 x10E6/uL
HEMATOCRIT [2]: 37.43%
HEMOGLOBIN [2]: 14.03 G/DL
LEUKOCYTE COUNT [2]: 15.17 x10E3/uL
LYMPHOCYTE [2]: 80.67%
MEAN CORPUSCULAR HEMOGLOBIN [2]: 23.13 pg
MEAN CORPUSCULAR HEMOGLOBIN CONCENTRATION [2]: 37.47 G/DL
MONOCYTE [2]: 2.67%
NUCLEATED RED BLOOD CELLS [2]: 0.33 /100WBC
PLATELET COUNT [2]: 1346 x10E3/uL
ALANINE AMINOTRANSFERASE [2]: 52.67 u/L
ALBUMIN [2]: 4.13 G/DL
ALKALINE PHOSPHATASE [2]: 293.33 u/L
ASPARTATE AMINOTRANSFERASE [2]: 84.67 u/L
BLOOD UREA NITROGEN [2]: 17.33 mg/dL
CARBON DIOXIDE [2]: 28.33 mmol/L
CHLORIDE [2]: 101.33 MEQ/L
CHOLESTEROL [2]: 69 mg/dL
CREATINE PHOSPHOKINASE [2]: 289.33 u/L
CREATININE [2]: 0.22 mg/dL
GLUCOSE [2]: 150.67 mg/dL
LACTATE DEHYDROGENASE [2]: 492.33 u/L
PHOSPHORUS [2]: 14.6 mg/dL
POTASSIUM [2]: 6.32 MEQ/L
SODIUM [2]: 146.93 MEQ/L
TOTAL BILIRUBIN [2]: 0.2 mg/dL
TOTAL PROTEIN [2]: 6.13 G/DL
URIC ACID [2]: 1.93 mg/dL
ABSOLUTE BASOPHIL [3]: 0 CELLS/uL
ABSOLUTE EOSINOPHIL [3]: 181 CELLS/uL
ABSOLUTE LYMPHOCYTE [3]: 16357.33 CELLS/uL
ABSOLUTE MONOCYTE [3]: 366 CELLS/uL
ABSOLUTE SEGMENTED NEUTROPHIL [3]: 1395.67 CELLS/uL
BASOPHIL [3]: 0%
EOSINOPHIL [3]: 1%
ERYTHROCYTE COUNT [3]: 5.97 x10E6/uL
HEMATOCRIT [3]: 37.73%
HEMOGLOBIN [3]: 13.8 G/DL
LEUKOCYTE COUNT [3]: 18.3 x10E3/uL
LYMPHOCYTE [3]: 89.33%
MEAN CORPUSCULAR HEMOGLOBIN [3]: 23.13 pg
MEAN CORPUSCULAR HEMOGLOBIN CONCENTRATION [3]: 36.6 G/DL
MONOCYTE [3]: 2%
NUCLEATED RED BLOOD CELLS [3]: 0 /100WBC
PLATELET COUNT [3]: 1334.67 x10E3/uL
ALANINE AMINOTRANSFERASE [3]: 41.67 u/L
ALBUMIN [3]: 4.2 G/DL
ALKALINE PHOSPHATASE [3]: 286.67 u/L
ASPARTATE AMINOTRANSFERASE [3]: 75 u/L
BLOOD UREA NITROGEN [3]: 17 mg/dL
CARBON DIOXIDE [3]: 24.33 mmol/L
CHLORIDE [3]: 105.67 MEQ/L
CHOLESTEROL [3]: 72.67 mg/dL
CREATINE PHOSPHOKINASE [3]: 235.33 u/L
CREATININE [3]: 0.23 mg/dL
GLUCOSE [3]: 155.67 mg/dL
LACTATE DEHYDROGENASE [3]: 382 u/L
PHOSPHORUS [3]: 13.4 mg/dL
POTASSIUM [3]: 6.76 MEQ/L
SODIUM [3]: 149.43 MEQ/L
TOTAL BILIRUBIN [3]: 0.2 mg/dL
TOTAL PROTEIN [3]: 6.23 G/DL
URIC ACID [3]: 1.77 mg/dL
ABSOLUTE BASOPHIL [4]: 0 CELLS/uL
ABSOLUTE EOSINOPHIL [4]: 0 CELLS/uL
ABSOLUTE LYMPHOCYTE [4]: 13803 CELLS/uL
ABSOLUTE MONOCYTE [4]: 207 CELLS/uL
ABSOLUTE SEGMENTED NEUTROPHIL [4]: 2023.33 CELLS/uL
BASOPHIL [4]: 0%
EOSINOPHIL [4]: 0%
ERYTHROCYTE COUNT [4]: 5.8 x10E6/uL
HEMATOCRIT [4]: 36.37%
HEMOGLOBIN [4]: 13.53 G/DL
LEUKOCYTE COUNT [4]: 16.03 x10E3/uL
LYMPHOCYTE [4]: 86%
MEAN CORPUSCULAR HEMOGLOBIN [4]: 23.33 pg
MEAN CORPUSCULAR HEMOGLOBIN CONCENTRATION [4]: 37.23 G/DL
MONOCYTE [4]: 1.33%
NUCLEATED RED BLOOD CELLS [4]: 0 /100WBC
PLATELET COUNT [4]: 1437.33 x10E3/uL
ALANINE AMINOTRANSFERASE [4]: 49.33 u/L
ALBUMIN [4]: 4.13 G/DL
ALKALINE PHOSPHATASE [4]: 415 u/L
ASPARTATE AMINOTRANSFERASE [4]: 76 u/L
BLOOD UREA NITROGEN [4]: 20.33 mg/dL
CARBON DIOXIDE [4]: 27.67 mmol/L
CHLORIDE [4]: 105 MEQ/L
CHOLESTEROL [4]: 63 mg/dL
CREATINE PHOSPHOKINASE [4]: 180 u/L
CREATININE [4]: 0.22 mg/dL
GLUCOSE [4]: 154 mg/dL
LACTATE DEHYDROGENASE [4]: 224.33 u/L
PHOSPHORUS [4]: 13.03 mg/dL
POTASSIUM [4]: 6.39 MEQ/L
SODIUM [4]: 146.27 MEQ/L
TOTAL BILIRUBIN [4]: 0.17 mg/dL
TOTAL PROTEIN [4]: 5.87 G/DL
URIC ACID [4]: 1.57 mg/dL
